biological target: T1, human IDO1 (Homo sapiens, UniProt P14902); test: HEK293 human IDO1 cell-based IDO inhibition assay; details: read-out: HEK Human IDO-1 Potency
T1 construct: expressed in transfected cells
Procedure, shortened: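 HEK293 cells stably expressing human IDO1, 10,000/well in RPMI with 10% FBS, treated with compound 20 h at 37 °C. Stopped with 0.2% final TCA, 50 °C for 30 min; supernatant mixed with 0.2% Ehrlich reagent in acetic acid, 30 min RT, absorbance read at 490 nm.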

T1 sequence (P14902 whole entry): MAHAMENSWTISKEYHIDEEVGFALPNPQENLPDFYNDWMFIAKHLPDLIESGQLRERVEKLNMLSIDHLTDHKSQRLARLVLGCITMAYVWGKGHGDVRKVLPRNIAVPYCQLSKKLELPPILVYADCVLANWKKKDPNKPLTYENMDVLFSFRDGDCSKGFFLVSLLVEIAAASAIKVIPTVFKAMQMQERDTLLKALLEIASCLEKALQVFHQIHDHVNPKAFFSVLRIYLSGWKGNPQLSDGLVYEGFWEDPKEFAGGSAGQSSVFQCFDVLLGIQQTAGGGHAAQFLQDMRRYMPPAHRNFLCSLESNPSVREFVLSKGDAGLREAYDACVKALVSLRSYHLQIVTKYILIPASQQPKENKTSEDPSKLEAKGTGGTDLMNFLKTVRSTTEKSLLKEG

IC50 [µM] | SMILES
> 0.25 | CC1(CC(=O)Nc2cncnc2)CCN(c2ccnc3ccc(F)cc23)CC1 [Example 122]
> 0.25 | CCCC(C(=O)Nc1ccc(Cl)cc1)N1CCN(c2ccnc3ccc(F)cc23)CC1 (single isomer, unassigned) [Example 246, N-(4-Chlorophenyl)-2-(4-(6-fluoroquinolin-4-yl)piperazin-1-yl)pentanamide]
< 0.05 | CCC(C(=O)Nc1ccc(Cl)cc1)[C@H]1CC[C@@H](Oc2cc(C(F)(F)F)nc3ccccc23)CC1 (mixture of isomers) [Example 88, (±)—N-(4-Chlorophenyl)-2-((cis)-4-((2-(trifluoromethyl)quinolin-4-yl)oxy)cyclohexyl)butanamide]
> 0.25 | COCC(C(=O)Nc1ccc(Cl)cc1)N1CCN(c2ccnc3ccc(F)cc23)CC1 (single isomer, unassigned) [Example 135, N-(4-chlorophenyl)-2-(4-(6-fluoroquinolin-4-yl)piperazin-1-yl)-3-methoxypropanamide]
> 0.25 | O=C(CC1CCN(c2ccnc3ccc(F)cc23)CC1)Nc1ccc(Br)cc1 [Example 117]
< 0.05 | C[C@@H](C(=O)Nc1cccc(Cl)c1)[C@H]1CC[C@@H](c2ccnc3ccc(F)cc32)CC1 [Example 65, (R)-N-(3-chloropehnyl)-2-((cis)-4-(6-fluoroqinolin-4-yl)cyclohexyl)propanamide]
< 0.05 | C[C@@H](C(=O)Nc1ccccc1F)[C@H]1CC[C@@H](c2ccnc3ccc(F)cc32)CC1 [Example 77, (R)-N-(2-fluorophenyl)-2-((cis)-4-(6-fluoroquinolin-4-yl)cyclohexyl)propanamide]
< 0.05 | CCC(C(=O)Nc1ccc(Cl)cc1)N1CCN(c2ccnc3ccc(F)cc23)CC1 (racemic) [Example 131, (±)—N-(4-Chlorophenyl)-2-(4-(6-fluoroquinolin-4-yl)piperazin-1-yl)butanamide]
< 0.25 | CC(C(=O)Nc1ccc(Cl)cc1)C1CCC(c2ccnc3ccnn23)CC1 (racemic) [Example 143, (±)—N-(4-chlorophenyl)-2-(cis- and trans-4-(pyrazolo[1,5-a]pyrimidin-7-yl)cyclohexyl)propanamide]
> 0.25 | Cc1ccc(NC(=O)C(C)N2CCC(Oc3ccnc4ccc(F)cc34)CC2)cc1 (single isomer, unassigned) [compound 110]
> 0.25 | CC(C(=O)Nc1ccc(Cl)cc1)N1CCN(c2ccnc3ccc(F)cc23)CC1 (racemic) [Example 126, (±)—N-(4-Chlorophenyl)-2-(4-(6-fluoroquinolin-4-yl)piperazin-1-yl)propanamide]
> 0.25 | CC(C(=O)Nc1ccc(F)cc1)N1CCC(Oc2ccnc3ccc(F)cc23)CC1 (single isomer, unassigned) [compound 106]
> 0.25 | COc1ncc(NC(=O)CC2(C)CCN(c3ccnc4ccc(F)cc34)CC2)cn1 [Example 124]
< 0.05 | Cc1ccc(NC(=O)C(C)N2CCC(Oc3ccnc4ccc(F)cc34)CC2)cc1 (single isomer, unassigned) [compound 109]
> 0.25 | C[C@@H](C(=O)Nc1ccc(Cl)cc1)[C@H]1CC[C@@H](c2ccnc3c2ncn3C)CC1 (single isomer, unassigned) [Example 251b, N-(4-chlorophenyl)-2-(4-(3-methyl-3H-imidazo[4,5-b]pyridin-7-yl)cyclohexyl)propanamide]
